For 20 compounds, EC50 results are on record in ChEMBL document CHEMBL4622937, “Design, synthesis, and biological evaluation of spiroindolines as novel inducers of oligodendrocyte progenitor cell differentiation-Use of a conformation-based hypothesis to facilitate compound design” (Bioorg Med Chem Lett, 2020).

pEC50: −log10 of the molar value.

The nature of the test: Induction of rat oligodendrocyte progenitor cells differentiation assessed as myelin basic protein expression level. It is filed as functional.
As for `CN1c2cc(F)ccc2CC12CCN(CC1CCOCC1)CC2`, the pEC50 is 8.00.
With `O=C1c2cc(C(F)(F)F)ccc2NC12CCN(CC1CCOCC1)CC2`, the pEC50 was 8.49.
For `FC(F)(F)c1ccc2c(c1)N(CC1CCOCC1)C1(CCN(CC3CCOCC3)CC1)C2` the value was 7.89; for `COC1(CN2CCC3(CC2)Cc2ccc(C(F)(F)F)cc2N3C)CCOCC1`, 7.27.
To `CN1c2ccc(C(F)(F)F)cc2C(=O)C12CCN(CC1CCOCC1)CC2` belongs 8.03.
As to `FC(F)(F)c1ccc2c(c1)CC1(CCN(CC3CCOCC3)CC1)N2`, the pEC50 was 6.62.
For `CN1c2cc(C(F)(F)F)ccc2CC12CCN(CC1CCC(F)(F)CC1)CC2` the value was 8.33; for `CN1c2cc(C(F)(F)F)ccc2CC12CCN(CC1CCOCC1)CC2`, 8.72; for `FC(F)(F)c1ccc2c(c1)N(Cc1ccccc1)C1(CCN(CC3CCOCC3)CC1)C2`, 8.43.
For `CC(C)(C)OC(=O)CN1c2cc(C(F)(F)F)ccc2CC12CCN(CC1CCOCC1)CC2` the value was 7.82; for `CN1c2ccc(C(F)(F)F)cc2CC12CCN(CC1CCOCC1)CC2`, 5.15.
To `CC(=O)N1c2cc(C(F)(F)F)ccc2CC12CCN(CC1CCOCC1)CC2` belongs 7.22.
As to `COCCN1CCC2(CC1)Cc1ccc(C(F)(F)F)cc1N2C`, the pEC50 is 6.60.
As to `O=C1c2ccc(C(F)(F)F)cc2NC12CCN(CC1CCOCC1)CC2`, the pEC50 was 7.27.
To `CN1c2cc(C(F)(F)F)ccc2CC12CCN(CC1(O)CCOCC1)CC2` belongs 8.24.
For `COCCCN1CCC2(CC1)Cc1ccc(C(F)(F)F)cc1N2C` the value was 6.62.
As to `CN(C)C(=O)CN1c2cc(C(F)(F)F)ccc2CC12CCN(CC1CCOCC1)CC2`, the pEC50 is 6.15.
For `CN1c2cc(C(F)(F)F)ccc2C(=O)C12CCN(CC1CCOCC1)CC2` the value was 8.85; for `CN1c2cc(Cl)ccc2CC12CCN(CC1CCOCC1)CC2`, 7.72; for `OCCN1c2cc(C(F)(F)F)ccc2CC12CCN(CC1CCOCC1)CC2`, 7.13.
